Legend:
[1] = tested on: ryegrass (LOLMU) biotypes; experiment: Greenhouse test, control of resistant weed biotypes, post-emergence, ryegrass; assay type: in vivo, Lolium multiflorum; settings: for Herbicidal activity: post-emergence, scale 0 to 100
Description: (§1) The herbicidal activity of herbicide A on resistant weed biotypes was tested in comparison with certain commercial herbicides by the following greenhouse experiments:
(§2) The culture containers used were plastic flowerpots containing loamy sand with approximately 3.0% of humus as the substrate. The seeds of the test plants were sown separately for each species. Six blackgrass (ALOMY) (10-103, 10-170, 09-591, 10-123, 11-215, 11-146) and six ryeg rass (LOLMU) (12-166, 12-143, 12-165, 12-307, 13-304, 13-313) biotypes with varying degrees of resistance towards a range of modes of action according to the HRAC (Herbicide Resistance Action Committee) classification on mode of action 2010 (see e.g http://www.hracglobal.com/pages/classificationofherbicidesiteofaction.aspx) were tested alongside two non-resistant biotypes (14-116 and 13-243), see Tables 1 and 2 below.
(§3) For the post-emergence treatment, the test plants were first grown to a height of 3 to 15 cm, depending on the plant habit, and only then treated with the active ingredients which had been suspended or emulsified in water. For this purpose, the test plants were either sown directly and grown in the same containers, or they were first grown separately as seedlings and transplanted into the test containers a few days prior to treatment.
(§4) Depending on the species, the plants were kept at 10-25° C. or 20-35° C. The test period extended over 2 to 4 weeks. During this time, the plants were tended, and their response to the individual treatments was evaluated.
(§5) The racemic mixture (±)-2-exo-(2-Methylbenzyloxy)-1-methyl-4-isopropyl-7-oxabicyclo[2.2.1]heptane was used as herbicide A and formulated as emulsifiable concentrates with an active ingredient concentration of 50 g/l, 100 g/l or 750 g/l respectively.
(§6) Flufenacet was used as a commercial concentrated solution formulation having an active ingredient concentration of 500 g/l (Cadou).
(§7) Imazamox was used as a water dispersible granule (70% WG).
(§8) Evaluation of the herbicidal activity was carried out using a scale from 0 to 100. 100 means complete destruction of at least the aerial moieties, and 0 means no damage, or normal course of growth. A good herbicidal activity is given at values of at least 70 and a very good herbicidal activity is given at values of at least 85.

[2] = tested on: MATIN; experiment: Greenhouse test, solo and combination, post-emergence, 20 DAT; assay type: in vivo, Matricaria inodora
Description: (§9) The test plants have been seeded, separately for each species, in plastic containers in sandy loamy soil containing 5% of organic matter.
(§10) For the post-emergence treatment, the plants were first grown to the 2 leaf station (GS 12) and applied at GS 12-19 depending on the species. The herbicidal compositions were suspended or emulsified in water as distribution medium and sprayed using finely distributing nozzles.
(§11) The plants have been cultivated due to their individual requirements at 10-25° C. and 20-35° C. The plants were irrigated due to their necessity.
(§12) The racemic mixture (±)-2-exo-(2-Methylbenzyloxy)-1-methyl-4-isopropyl-7-oxabicyclo[2.2.1]heptane was used as herbicide A and formulated as emulsifiable concentrate having an active ingredient concentration of 750 g/l.
(§13) Cyhalofop-butyl (herbicide B.5) was used as an emulsifiable concentrate (EC) formulation having an active ingredient concentration of 200 g/l.
(§14) Metsulfuron-methyl (herbicide B.53) was used as a water soluble granule (SG) formulation having an active ingredient concentration of 20%.
(§15) Bispyribac-sodium (herbicide B.23) was used as a soluble concentrate (SL) formulation having an active ingredient concentration of 408 g/l.
(§16) Quizalofop-P-ethyl (herbicide B.217) was used as a suspension concentrate (SC) formulation having an active ingredient concentration of 106 g/l.
(§17) In the following experiments, the herbicidal activity for the individual herbicide compounds (solo and mixture applications) was assessed 20 days after treatment (DAT).
(§18) The evaluation for the damage on undesired weeds caused by the chemical compositions was carried out using a scale from 0 to 100%, compared to the untreated control plants. Here, 0 means no damage and 100 means complete destruction of the plants.
(§19) The plants used in the greenhouse experiments belonged to the following species:
(§20) E=X+Y−(X·Y/100) • where X=effect in percent using herbicide A at an application rate a; • Y=effect in percent using herbicide B at application rate b; • E=expected effect (in %) of herbicide A+herbicide B at application rates a+b.
(§21) The value E corresponds to the effect (plant damage or injury) which is to be expected if the activity of the individual compounds is additive. If the observed effect is higher than the value E calculated according to the Colby equation, a synergistic effect is present.
(§22) Tables 3 to 6 below relate the herbicidal activity, in greenhouse trials, of the individual actives and the combination applied at different rates and ratios, in post-emergence application at 20 days after treatment (DAT).

[3] = tested on: ALOMY; experiment: as above; assay type: in vivo, Alopecurus myosuroides
Description: as §9, §10, §11, §12, §13, §14, §15, §16, §17, §18, §19, §20, §21, §22

[4] = tested on: BRSNW; experiment: as above; assay type: in vivo, Brassica napus
Description: as §9, §10, §11, §12, §13, §14, §15, §16, §17, §18, §19, §20, §21, §22

[5] = tested on: PAPRH; experiment: as above; assay type: in vivo, Papaver rhoeas
Description: as §9, §10, §11, §12, §13, §14, §15, §16, §17, §18, §19, §20, §21, §22

[6] = tested on: GALAP; experiment: as above; assay type: in vivo, Galium aparine
Description: as §9, §10, §11, §12, §13, §14, §15, §16, §17, §18, §19, §20, §21, §22

[7] = tested on: blackgrass (ALOMY) biotypes; experiment: Greenhouse test, control of resistant weed biotypes, post-emergence, blackgrass; assay type: in vivo, Alopecurus myosuroides; settings: for Herbicidal activity: post-emergence, scale 0 to 100
Description: as §1, §2, §3, §4, §5, §6, §7, §8

## (±)-2-exo-(2-Methylbenzyloxy)-1-methyl-4-isopropyl-7-oxabicyclo[2.2.1]heptane [Herbicide A]
[1]; BT 12-143, resistant HRAC group A, B, C, E, K, 125 g ai/ha
  Herbicidal activity: 80
[1]; BT 12-143, resistant HRAC group A, B, C, E, K, 250 g ai/ha
  Herbicidal activity: 95
[1]; BT 12-165, resistant HRAC group A, B, E, K, 125 g ai/ha
  Herbicidal activity: 95
[1]; BT 12-165, resistant HRAC group A, B, E, K, 250 g ai/ha
  Herbicidal activity: 100
[1]; BT 12-166, resistant HRAC group A, B, E, K, 125 g ai/ha
  Herbicidal activity: 90
[1]; BT 12-166, resistant HRAC group A, B, E, K, 250 g ai/ha
  Herbicidal activity: 90
[1]; BT 12-307, resistant HRAC group B, F, K, O, 125 g ai/ha
  Herbicidal activity: 70
[1]; BT 12-307, resistant HRAC group B, F, K, O, 250 g ai/ha
  Herbicidal activity: 90
[1]; BT 13-243, Sensitive standard, 125 g ai/ha
  Herbicidal activity: 75
[1]; BT 13-243, Sensitive standard, 250 g ai/ha
  Herbicidal activity: 90
[1]; BT 13-304, resistant HRAC group A, B, E, K, 125 g ai/ha
  Herbicidal activity: 85
[1]; BT 13-304, resistant HRAC group A, B, E, K, 250 g ai/ha
  Herbicidal activity: 95
[1]; BT 13-313, resistant HRAC group A, B, C, E, K, 125 g ai/ha
  Herbicidal activity: 70
[1]; BT 13-313, resistant HRAC group A, B, C, E, K, 250 g ai/ha
  Herbicidal activity: 95
[1]; post-emergence treatment, various biotypes of ryegrass (LOLMU) with varying degrees of resistance
  herbicidal activity (summary in words): very good herbicidal activity (a very good herbicidal activity is given at values of at least 85)
[2]; solo application 62.5 g ai/ha
  Herbicidal activity: 0%
[2]; solo application 125 g ai/ha
  Herbicidal activity: 0%
[2]; solo application 250 g ai/ha
  Herbicidal activity: 0%
[2]; solo application 500 g ai/ha
  Herbicidal activity: 25%
[3]; solo application 62.5 g ai/ha
  Herbicidal activity: 30%
[3]; solo application 125 g ai/ha
  Herbicidal activity: 55%
[3]; solo application 250 g ai/ha
  Herbicidal activity: 70%
[3]; solo application 500 g ai/ha
  Herbicidal activity: 80%
[4]; solo application 62.5 g ai/ha
  Herbicidal activity: 0%
[4]; solo application 125 g ai/ha
  Herbicidal activity: 0%
[4]; solo application 500 g ai/ha
  Herbicidal activity: 0%
[5]; solo application 62.5 g ai/ha
  Herbicidal activity: 0%
[5]; solo application 250 g ai/ha
  Herbicidal activity: 40%
[5]; solo application 500 g ai/ha
  Herbicidal activity: 60%
[6]; solo application 62.5 g ai/ha
  Herbicidal activity: 25%
[6]; solo application 125 g ai/ha
  Herbicidal activity: 35%
[6]; solo application 250 g ai/ha
  Herbicidal activity: 35%
[6]; solo application 500 g ai/ha
  Herbicidal activity: 45%
[7]; BT 09-591, resistant HRAC group A, B, K, 125 g ai/ha
  Herbicidal activity: 80
[7]; BT 09-591, resistant HRAC group A, B, K, 250 g ai/ha
  Herbicidal activity: 95
[7]; BT 10-103, resistant HRAC group A, B, K, 125 g ai/ha
  Herbicidal activity: 80
[7]; BT 10-103, resistant HRAC group A, B, K, 250 g ai/ha
  Herbicidal activity: 95
[7]; BT 10-123, resistant HRAC group A, B, C, 125 g ai/ha
  Herbicidal activity: 85
[7]; BT 10-123, resistant HRAC group A, B, C, 250 g ai/ha
  Herbicidal activity: 90
[7]; BT 10-170, resistant HRAC group A, B, K, 125 g ai/ha
  Herbicidal activity: 85
[7]; BT 10-170, resistant HRAC group A, B, K, 250 g ai/ha
  Herbicidal activity: 90
[7]; BT 11-146, resistant HRAC group K, 125 g ai/ha
  Herbicidal activity: 90
[7]; BT 11-146, resistant HRAC group K, 250 g ai/ha
  Herbicidal activity: 95
[7]; BT 11-215, resistant HRAC group A, B, C, E, K, 125 g ai/ha
  Herbicidal activity: 80
[7]; BT 11-215, resistant HRAC group A, B, C, E, K, 250 g ai/ha
  Herbicidal activity: 95
[7]; BT 14-116, Sensitive standard, 125 g ai/ha
  Herbicidal activity: 65
[7]; BT 14-116, Sensitive standard, 250 g ai/ha
  Herbicidal activity: 100
[7]; post-emergence treatment, various biotypes of blackgrass (ALOMY) with varying degrees of resistance
  herbicidal activity (summary in words): very good herbicidal activity (a very good herbicidal activity is given at values of at least 85)
